Test results from patent publication US12162820B2 (TAIWANJ PHARMACEUTICALS CO., LTD., priority 2019, dated 2024).

Columns and labels:
Format in all cases: biochemical
[1] = molecular target: T1, HDAC1 (Homo sapiens, UniProt Q13547); experiment: HDAC Inhibition Screening Assay (FLUOR DE LYS Fluorimetric Drug Discovery Kit), HDAC1; details: for inhibition at 2 µM: 2 μM compound; for inhibition at 10 µM: 10 μM compound; for inhibition at 50 µM: 50 μM compound
T1 construct: purchased Enzo Life Sciences
Method in brief: (§1)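 Compounds at 2 μM, 10 μM and 50 μM were each tested against HDAC1, HDAC2 and HDAC3 using a two-step fluorimetric assay. Results are given as percent of basal control after baseline subtraction.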

[2] = molecular target: T2, HDAC2 (Homo sapiens, UniProt Q92769); experiment: HDAC Inhibition Screening Assay (FLUOR DE LYS Fluorimetric Drug Discovery Kit), HDAC2; details: for inhibition at 2 µM: 2 μM compound; for inhibition at 10 µM: 10 μM compound; for inhibition at 50 µM: 50 μM compound
T2 construct: purchased Enzo Life Sciences
Method in brief: as §1

[3] = molecular target: T3, HDAC3 (Homo sapiens, UniProt O15379); experiment: HDAC Inhibition Screening Assay (FLUOR DE LYS Fluorimetric Drug Discovery Kit), HDAC3; details: for inhibition at 2 µM: 2 μM compound; for inhibition at 10 µM: 10 μM compound; for inhibition at 50 µM: 50 μM compound
T3 construct: purchased Enzo Life Sciences
Method in brief: as §1

[4] = molecular target: T4, ATX (autotaxin) (Homo sapiens, UniProt Q13822); experiment: Autotaxin Inhibition Screening Assay (choline release from LPC, LPC-CR); details: for inhibition at 4 µM: 4 μM compound; for inhibition at 20 µM: 20 μM compound; for inhibition at 50 µM: 50 μM compound
T4 construct: purchased Cayman 10803
Method in brief: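 Released choline from 100 μM 14:0 LPC, detected via choline oxidase–HRP–homovanillic acid fluorescence (320/450 nm) kinetically over 90 min, reports activity of 20 ng ATX. Buffer: 50 mM Tris pH 8.0, 50 mM CaCl2, 0.01% Triton X-100; test compounds 4, 20, 50 μM; percent inhibition from blank-subtracted slopes relative to vehicle.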

T1 sequence (Q13547 whole entry): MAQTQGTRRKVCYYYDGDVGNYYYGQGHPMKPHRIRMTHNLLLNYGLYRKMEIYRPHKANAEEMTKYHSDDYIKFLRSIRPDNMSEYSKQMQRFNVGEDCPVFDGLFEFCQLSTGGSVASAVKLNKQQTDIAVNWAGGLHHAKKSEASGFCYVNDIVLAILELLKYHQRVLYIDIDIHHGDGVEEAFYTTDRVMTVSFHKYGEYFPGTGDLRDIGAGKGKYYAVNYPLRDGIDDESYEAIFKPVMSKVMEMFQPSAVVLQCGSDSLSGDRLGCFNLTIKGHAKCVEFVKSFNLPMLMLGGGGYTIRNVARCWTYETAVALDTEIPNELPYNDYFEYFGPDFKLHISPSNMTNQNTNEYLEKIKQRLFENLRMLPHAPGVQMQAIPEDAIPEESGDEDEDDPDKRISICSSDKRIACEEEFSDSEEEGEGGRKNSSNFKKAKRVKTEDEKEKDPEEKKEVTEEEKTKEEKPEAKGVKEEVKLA
T2 sequence (Q92769 whole entry): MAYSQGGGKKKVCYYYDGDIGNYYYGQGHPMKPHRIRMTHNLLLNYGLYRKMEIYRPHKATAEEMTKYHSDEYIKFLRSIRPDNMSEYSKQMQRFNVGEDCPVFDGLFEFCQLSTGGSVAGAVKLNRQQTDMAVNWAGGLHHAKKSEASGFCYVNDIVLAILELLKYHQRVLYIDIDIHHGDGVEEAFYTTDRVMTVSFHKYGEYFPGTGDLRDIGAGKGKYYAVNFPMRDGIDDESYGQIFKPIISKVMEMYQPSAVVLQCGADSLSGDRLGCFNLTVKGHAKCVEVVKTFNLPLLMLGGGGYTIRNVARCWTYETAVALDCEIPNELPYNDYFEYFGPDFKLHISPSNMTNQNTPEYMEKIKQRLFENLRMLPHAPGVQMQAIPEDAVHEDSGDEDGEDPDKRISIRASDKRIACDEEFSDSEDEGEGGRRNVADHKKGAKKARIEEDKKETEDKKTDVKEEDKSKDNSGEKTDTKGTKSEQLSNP
T3 sequence (O15379 whole entry): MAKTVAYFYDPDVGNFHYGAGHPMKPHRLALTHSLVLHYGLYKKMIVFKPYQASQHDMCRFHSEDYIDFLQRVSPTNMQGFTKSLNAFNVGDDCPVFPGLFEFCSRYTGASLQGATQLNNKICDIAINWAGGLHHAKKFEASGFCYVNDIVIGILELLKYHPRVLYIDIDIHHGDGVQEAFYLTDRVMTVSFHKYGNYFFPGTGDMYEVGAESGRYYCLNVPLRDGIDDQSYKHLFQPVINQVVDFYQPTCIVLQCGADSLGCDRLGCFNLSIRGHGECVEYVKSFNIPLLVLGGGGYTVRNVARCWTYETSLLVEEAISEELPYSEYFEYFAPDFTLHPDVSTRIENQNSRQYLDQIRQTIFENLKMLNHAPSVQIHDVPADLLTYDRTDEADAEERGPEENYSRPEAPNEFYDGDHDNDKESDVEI
T3 sequence (O75376 395-489 partner limits assumed): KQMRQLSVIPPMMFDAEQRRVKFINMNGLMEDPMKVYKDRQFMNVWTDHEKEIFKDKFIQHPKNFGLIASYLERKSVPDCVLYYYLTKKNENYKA

SMILES | inhibition at 2 µM [1] | inhibition at 10 µM [1] | inhibition at 50 µM [1] | inhibition at 2 µM [2] | inhibition at 10 µM [2] | inhibition at 50 µM [2] | inhibition at 2 µM [3] | inhibition at 10 µM [3] | inhibition at 50 µM [3] | inhibition at 4 µM [4] | inhibition at 20 µM [4] | inhibition at 50 µM [4]
O=C(NO)c1ccc(COc2ccc3c(c2)CCC(Cc2cc(C(F)(F)F)cc(C(F)(F)F)c2)C3=O)cc1 (stereo not drawn) [Compound 68, 4-(((6-(3,5-bis(trifluoromethyl)benzyl)-5-oxo-5,6,7,8-tetrahydronaphthalen-2-yl)oxy)methyl)-N-hydroxybenzamide] | < 50% | < 50% | < 50% | < 50% | < 50% | < 50% | < 50% | < 50% | < 50% | < 50% | < 50% | < 50%
Nc1cc(F)ccc1NC(=O)/C=C/c1ccc(COc2ccc3c(c2)CCCC3=O)cc1 [Compound 69, (E)-N-(2-amino-4-fluorophenyl)-3-(4-(((5-oxo-5,6,7,8-tetra-hydronaphthalen-2-yl)oxy)methyl)phenyl)acrylamide] | < 50% | < 50% | < 50% | < 50% | < 50% | 50 to 80% | < 50% | < 50% | < 50% | < 50% | < 50% | < 50%
O=C(/C=C/c1ccc(COc2ccc3c(c2)CCCC3=O)cc1)NO [Compound 70, (E)-N-hydroxy-3-(4-(((5-oxo-5,6,7,8-tetrahydronaphthalen-2-yl)oxy)-methyl)phenyl)acrylamide] | 50 to 80% | > 80% | > 80% | > 80% | > 80% | > 80% | > 80% | > 80% | > 80% | < 50% | 50 to 80% | 50 to 80%
Nc1cc(F)ccc1NC(=O)/C=C/c1ccc(COc2ccc3c(c2)CC/C(=C\c2cc(C(F)(F)F)cc(C(F)(F)F)c2)C3=O)cc1 [Compound 71] | < 50% | < 50% | < 50% | < 50% | < 50% | < 50% | < 50% | < 50% | < 50% | < 50% | < 50% | < 50%
O=C(/C=C/c1ccc(COc2ccc3c(c2)CC/C(=C\c2cc(C(F)(F)F)cc(C(F)(F)F)c2)C3=O)cc1)NO [Compound 72, (E)-3-(4-(((6-((E)-3,5-bis(trifluoromethyl)benzylidene)-5-oxo-5,6,7,8-tetrahydronaphthalen-2-yl)oxy)methyl)phenyl)-N-hydroxyacrylamide] | < 50% | < 50% | 50 to 80% | < 50% | < 50% | 50 to 80% | < 50% | < 50% | 50 to 80% | 50 to 80% | 50 to 80% | 50 to 80%
O=C(/C=C/c1ccc(COc2ccc3c(c2)CCC(Cc2cc(C(F)(F)F)cc(C(F)(F)F)c2)C3=O)cc1)NO (stereo not drawn) [Compound 73, (E)-3-(4-(((6-(3,5-bis(trifluoromethyl)benzyl)-5-oxo-5,6,7,8-tetrahydronaphthalen-2-yl)oxy)methyl)phenyl)-N-hydroxyacrylamide] | < 50% | < 50% | < 50% | < 50% | < 50% | < 50% | < 50% | < 50% | < 50% | < 50% | < 50% | < 50%
O=C(CCCCCNC(=O)COc1ccc2c(c1)CC/C(=C\c1cc(C(F)(F)F)cc(C(F)(F)F)c1)C2=O)NO [Compound 74, (E)-6-(2-((6-(3,5-bis(trifluoromethyl)benzylidene)-5-oxo-5,6,7,8-tetra-hydronaphthalen-2-yl)oxy)acetamido)-N-hydroxyhexanamide] | < 50% | > 80% | > 80% | 50 to 80% | > 80% | > 80% | < 50% | > 80% | > 80% | > 80% | > 80% | > 80%
O=C(/C=C/c1ccc(CNC(=O)COc2ccc3c(c2)CC/C(=C\c2cc(C(F)(F)F)cc(C(F)(F)F)c2)C3=O)cc1)NO [Compound 75] | < 50% | < 50% | 50 to 80% | < 50% | < 50% | 50 to 80% | < 50% | < 50% | 50 to 80% | 50 to 80% | 50 to 80% | 50 to 80%
Nc1cc(F)ccc1NC(=O)c1ccc(COc2ccc3c(c2)CC(Cc2cc(C(F)(F)F)cc(C(F)(F)F)c2)C3=O)cc1 (stereo not drawn) [Compound 76, N-(2-amino-4-fluorophenyl)-4-(((2-(3,5-bis(trifluoromethyl)benzyl)-1-oxo-2,3-dihydro-1H-inden-5-yl)oxy)methyl)benzamide] | < 50% | < 50% | < 50% | < 50% | < 50% | < 50% | < 50% | < 50% | < 50% | < 50% | < 50% | < 50%
O=C(NO)c1ccc(COc2ccc3c(c2)CC(Cc2cc(C(F)(F)F)cc(C(F)(F)F)c2)C3=O)cc1 (stereo not drawn) [Compound 77, 4-(((2-(3,5-bis(trifluoromethyl)benzyl)-1-oxo-2,3-dihydro-1H-inden-5-yl)oxy)methyl)-N-hydroxybenzamide] | < 50% | < 50% | 50 to 80% | < 50% | 50 to 80% | 50 to 80% | < 50% | < 50% | 50 to 80% | > 80% | > 80% | > 80%
Nc1cc(F)ccc1NC(=O)CCCCCNC(=O)c1ccc2c(c1)CC/C(=C\c1cc(C(F)(F)F)cc(C(F)(F)F)c1)C2=O [Compound 78] | < 50% | < 50% | < 50% | < 50% | < 50% | < 50% | < 50% | < 50% | < 50% | > 80% | > 80% | > 80%
